According to the NIST ThermoML archive (doi:10.1016/j.tca.2007.04.006):
± gives the expanded uncertainty stated by the source.

Test: molar heat capacity at constant pressure
Settings: 101.33 kPa, Crystal, Vacuum adiabatic calorimetry

Nc1ccc([N+](=O)[O-])cn1 [2-amino-5-nitropyridine]
Settings	molar heat capacity at constant pressure [J/K/mol]
239.83 K	130.77 ± 0.57
240 K	130.22 ± 0.57
242.82 K	132.21 ± 0.58
245 K	132.74 ± 0.58
245.9 K	133.33 ± 0.58
249 K	134.92 ± 0.59
250 K	135.28 ± 0.59
252.08 K	136.09 ± 0.59
255 K	137.85 ± 0.6
255.25 K	137.55 ± 0.6
258.39 K	138.82 ± 0.6
260 K	140.44 ± 0.61
261.52 K	140.61 ± 0.61
264.62 K	142.67 ± 0.62
265 K	143.05 ± 0.62
267.71 K	144.57 ± 0.63
270 K	145.69 ± 0.63
270.79 K	146.14 ± 0.63
273.84 K	147.16 ± 0.64
275 K	148.34 ± 0.64
276.89 K	148.4 ± 0.64
279.92 K	149.95 ± 0.65
280 K	151.02 ± 0.65
282.94 K	151.57 ± 0.66
285 K	153.71 ± 0.66
286.05 K	152.95 ± 0.66
289.25 K	154.4 ± 0.67
290 K	156.42 ± 0.68
292.39 K	157.06 ± 0.68
295 K	159.13 ± 0.69
295.48 K	158.97 ± 0.69
298.15 K	160.85 ± 0.69
298.56 K	161.47 ± 0.69
300 K	161.86 ± 0.7
301.64 K	163.12 ± 0.7
304.71 K	164.66 ± 0.71
305 K	164.59 ± 0.71
307.77 K	165.74 ± 0.71
310 K	167.33 ± 0.72
310.83 K	167.2 ± 0.72
313.87 K	168.75 ± 0.72
315 K	170.06 ± 0.73
316.9 K	170.43 ± 0.73
319.93 K	172.15 ± 0.74
320 K	172.79 ± 0.74
323.02 K	174.56 ± 0.75
325 K	175.51 ± 0.75
326.19 K	175.6 ± 0.75
329.34 K	177.96 ± 0.76
330 K	178.22 ± 0.76
332.48 K	180.37 ± 0.77
335 K	180.91 ± 0.77
335.62 K	182.54 ± 0.78
338.77 K	183.77 ± 0.78
340 K	183.58 ± 0.78
341.9 K	185.05 ± 0.79
345 K	186.22 ± 0.79
345.02 K	186.91 ± 0.8
348.14 K	188.46 ± 0.8
350 K	188.82 ± 0.8
351.24 K	190.04 ± 0.81
354.33 K	191.86 ± 0.82
355 K	191.39 ± 0.81
357.42 K	193.4 ± 0.82
360 K	193.92 ± 0.82
360.58 K	194.97 ± 0.83
363.8 K	195.55 ± 0.83
365 K	196.39 ± 0.83
367.02 K	197.03 ± 0.84
370 K	198.81 ± 0.84
370.23 K	198.93 ± 0.84
373.42 K	200.16 ± 0.85
375 K	201.16 ± 0.85
376.61 K	202.18 ± 0.86
379.79 K	203.08 ± 0.86
380 K	203.44 ± 0.86
382.96 K	204.62 ± 0.87
385 K	205.64 ± 0.87
386.12 K	205.85 ± 0.87
389.27 K	207.34 ± 0.88
390 K	207.76 ± 0.88
392.45 K	208.4 ± 0.88
395 K	209.78 ± 0.89
395.48 K	209.36 ± 0.89
